# Values quoted from earlier work in patent publication US4795645A, “Sustained release tablets of theophylline” (Yissum Research and Development, priority 1986, dated 1989).
# Settings: from oral solutions and plain uncoated tablets
structure (smiles),measurement,value
"Cn1c(=O)c2[nH]cnc2n(C)c1=O [Theophylline, theophylline]",absorption,"rapidly, consistently and completely absorbed"
